Data taken from ChEMBL document CHEMBL2380212, “Synthesis, single crystal and antitumor activities of benzimidazole-quinazoline hybrids” (Bioorg Med Chem Lett, 2013).

Assays:
[1] = test system: OVCAR-5; assay: Cytotoxicity against human OVCAR5 cells at 10 uM after 48 hrs by SRB assay; assay type: functional; conditions: OVCAR-5, 48 h, read-out: GI
[2] = test system: M14; assay: Cytotoxicity against human M14 cells at 10 uM after 48 hrs by SRB assay; assay type: functional; conditions: M14, 48 h, read-out: GI
[3] = test system: A549; assay: Cytotoxicity against human A549 cells at 10 uM after 48 hrs by SRB assay; assay type: functional; conditions: A549, 48 h, read-out: GI
[4] = test system: Hs-578T; assay: Cytotoxicity against human Hs578T cells at 10 uM after 48 hrs by SRB assay; assay type: functional; conditions: read-out: GI
[5] = test system: SW-620; assay: Cytotoxicity against human SW620 cells at 10 uM after 48 hrs by SRB assay; assay type: functional; conditions: SW-620, 48 h, read-out: GI
[6] = test system: OVCAR-3; assay: Cytotoxicity against human OVCAR3 cells at 10 uM after 48 hrs by SRB assay; assay type: functional; conditions: OVCAR-3, 48 h, read-out: GI
[7] = test system: HCT-116; assay: Cytotoxicity against human HCT116 cells at 10 uM after 48 hrs by SRB assay; assay type: functional; conditions: HCT-116, 48 h, read-out: GI
[8] = test system: HL-60(TB); assay: Cytotoxicity against human HL-60(TB) cells at 10 uM after 48 hrs by SRB assay; assay type: functional; conditions: HL-60, 48 h, read-out: GI
[9] = test system: NCI-H522; assay: Cytotoxicity against human NCI-H522 cells at 10 uM after 48 hrs by SRB assay; assay type: functional; conditions: NCI-H522, 48 h, read-out: GI
[10] = test system: COLO 205; assay: Cytotoxicity against human COLO205 cells at 10 uM after 48 hrs by SRB assay; assay type: functional; conditions: COLO 205, 48 h, read-out: GI
[11] = test system: SNB-19; assay: Cytotoxicity against human SNB19 cells at 10 uM after 48 hrs by SRB assay; assay type: functional; conditions: SNB-19, 48 h, read-out: GI
[12] = test system: SK-MEL-28; assay: Cytotoxicity against human SK-MEL-28 cells at 10 uM after 48 hrs by SRB assay; assay type: functional; conditions: SK-MEL-28, 48 h, read-out: GI
[13] = test system: UACC-62; assay: Cytotoxicity against human UACC62 cells at 10 uM after 48 hrs by SRB assay; assay type: functional; conditions: UACC-62, 48 h, read-out: GI
[14] = test system: MDA-MB-231; assay: Cytotoxicity against human MDA-MB-231 cells at 10 uM after 48 hrs by SRB assay; assay type: functional; conditions: MDA-MB-231, 48 h, read-out: GI
[15] = test system: SN12C; assay: Cytotoxicity against human SN12C cells at 10 uM after 48 hrs by SRB assay; assay type: functional; conditions: read-out: GI
[16] = test system: UO-31; assay: Cytotoxicity against human UO31 cells at 10 uM after 48 hrs by SRB assay; assay type: functional; conditions: UO-31, 48 h, read-out: GI
[17] = test system: TK-10; assay: Cytotoxicity against human TK10 cells at 10 uM after 48 hrs by SRB assay; assay type: functional; conditions: TK-10, 48 h, read-out: GI
[18] = test system: CAKI-1; assay: Cytotoxicity against human Caki1 cells at 10 uM after 48 hrs by SRB assay; assay type: functional; conditions: CAKI-1, 48 h, read-out: GI
[19] = test system: NCI-H322M; assay: Cytotoxicity against human NCI-H322M cells at 10 uM after 48 hrs by SRB assay; assay type: functional; conditions: read-out: GI
[20] = test system: HOP-92; assay: Cytotoxicity against human HOP92 cells at 10 uM after 48 hrs by SRB assay; assay type: functional; conditions: HOP-92, 48 h, read-out: GI
[21] = test system: HCT-15; assay: Cytotoxicity against human HCT15 cells at 10 uM after 48 hrs by SRB assay; assay type: functional; conditions: HCT-15, 48 h, read-out: GI
[22] = test system: ACHN; assay: Cytotoxicity against human ACHN cells at 10 uM after 48 hrs by SRB assay; assay type: functional; conditions: read-out: GI
[23] = Cytotoxicity against human EKVX cells at 10 uM after 48 hrs by SRB assay; assay type: functional; conditions: read-out: GI
[24] = test system: SF-295; assay: Cytotoxicity against human SF295 cells at 10 uM after 48 hrs by SRB assay; assay type: functional; conditions: SF-295, 48 h, read-out: GI
[25] = test system: IGROV-1; assay: Cytotoxicity against human IGROV1 cells at 10 uM after 48 hrs by SRB assay; assay type: functional; conditions: IGROV-1, 48 h, read-out: GI
[26] = test system: NCI-H23; assay: Cytotoxicity against human NCI-H23 cells at 10 uM after 48 hrs by SRB assay; assay type: functional; conditions: NCI-H23, 48 h, read-out: GI
[27] = test system: SK-OV-3; assay: Cytotoxicity against human SKOV3 cells at 10 uM after 48 hrs by SRB assay; assay type: functional; conditions: SK-OV-3, 48 h, read-out: GI
[28] = test system: MDA-MB-468; assay: Cytotoxicity against human MDA-MB-468 cells at 10 uM after 48 hrs by SRB assay; assay type: functional; conditions: MDA-MB-468, 48 h, read-out: GI
[29] = test system: HOP-62; assay: Cytotoxicity against human HOP62 cells at 10 uM after 48 hrs by SRB assay; assay type: functional; conditions: HOP-62, 48 h, read-out: GI
[30] = test system: RXF 393; assay: Cytotoxicity against human RXF393 cells at 10 uM after 48 hrs by SRB assay; assay type: functional; conditions: RXF 393, 48 h, read-out: GI
[31] = test system: MDA-MB-435; assay: Cytotoxicity against human MDA-MB-435 cells at 10 uM after 48 hrs by SRB assay; assay type: functional; conditions: MDA-MB-435, 48 h, read-out: GI
[32] = test system: SF-539; assay: Cytotoxicity against human SF539 cells at 10 uM after 48 hrs by SRB assay; assay type: functional; conditions: SF-539, 48 h, read-out: GI
[33] = test system: SNB-75; assay: Cytotoxicity against human SNB75 cells at 10 uM after 48 hrs by SRB assay; assay type: functional; conditions: SNB-75, 48 h, read-out: GI
[34] = test system: SK-MEL-5; assay: Cytotoxicity against human SK-MEL-5 cells at 10 uM after 48 hrs by SRB assay; assay type: functional; conditions: SK-MEL-5, 48 h, read-out: GI
[35] = test system: HCC 2998; assay: Cytotoxicity against human HCC2998 cells at 10 uM after 48 hrs by SRB assay; assay type: functional; conditions: HCC 2998, 48 h, read-out: GI
[36] = test system: A498; assay: Cytotoxicity against human A498 cells at 10 uM after 48 hrs by SRB assay; assay type: functional; conditions: A498, 48 h, read-out: GI
[37] = test system: MCF7; assay: Cytotoxicity against human MCF7 cells at 10 uM after 48 hrs by SRB assay; assay type: functional; conditions: MCF7, 48 h, read-out: GI
[38] = test system: 786-0; assay: Cytotoxicity against human 786-0 cells at 10 uM after 48 hrs by SRB assay; assay type: functional; conditions: 786-0, 48 h, read-out: GI
[39] = n-Octanol-phosphate buffer partition coefficient, log P of the compound at pH 7.4 by shake flask method; assay type: physicochemical
[40] = test system: T47D; assay: Cytotoxicity against human T47D cells at 10 uM after 48 hrs by SRB assay; assay type: functional; conditions: read-out: GI
[41] = test system: LOX IMVI; assay: Cytotoxicity against human LOXIMVI cells at 10 uM after 48 hrs by SRB assay; assay type: functional; conditions: read-out: GI
[42] = test system: MOLT-4; assay: Cytotoxicity against human MOLT4 cells at 10 uM after 48 hrs by SRB assay; assay type: functional; conditions: MOLT-4, 48 h, read-out: GI

C=CCn1c(C)nc2ccc(Nc3nc(N4CCOCC4)nc4ccccc34)cc21
2.81: logD [39]
61.9%: inhibition of growth at 10 µM [8]
11.5%: inhibition of growth at 10 µM [18]
14.7%: inhibition of growth at 10 µM [16]
11.2%: inhibition of growth at 10 µM [40]
< 10%: inhibition of growth at 10 µM [1] | inhibition of growth at 10 µM [2] | inhibition of growth at 10 µM [4] | inhibition of growth at 10 µM [5] | inhibition of growth at 10 µM [6] | inhibition of growth at 10 µM [7] | inhibition of growth at 10 µM [9] | inhibition of growth at 10 µM [10] | inhibition of growth at 10 µM [11] | inhibition of growth at 10 µM [12] | inhibition of growth at 10 µM [13] | inhibition of growth at 10 µM [14] | inhibition of growth at 10 µM [15] | inhibition of growth at 10 µM [17] | inhibition of growth at 10 µM [19] | inhibition of growth at 10 µM [20] | inhibition of growth at 10 µM [21] | inhibition of growth at 10 µM [22] | inhibition of growth at 10 µM [23] | inhibition of growth at 10 µM [24] | inhibition of growth at 10 µM [25] | inhibition of growth at 10 µM [26] | inhibition of growth at 10 µM [27] | inhibition of growth at 10 µM [28] | inhibition of growth at 10 µM [29] | inhibition of growth at 10 µM [30] | inhibition of growth at 10 µM [31] | inhibition of growth at 10 µM [32] | inhibition of growth at 10 µM [34] | inhibition of growth at 10 µM [35] | inhibition of growth at 10 µM [37] | inhibition of growth at 10 µM [38] | inhibition of growth at 10 µM [41]
12.6%: inhibition of growth at 10 µM [33]
11.8%: inhibition of growth at 10 µM [3]
41.2%: inhibition of growth at 10 µM [36]

C=CCn1c(C)nc2cc(Nc3nc(N4CCCC4)nc4ccccc34)ccc21
11.1%: inhibition of growth at 10 µM [38]
13.3%: inhibition of growth at 10 µM [28]
15.5%: inhibition of growth at 10 µM [20]
2.51: logD [39]
22.6%: inhibition of growth at 10 µM [40]
10.1%: inhibition of growth at 10 µM [3] | inhibition of growth at 10 µM [16]
27.6%: inhibition of growth at 10 µM [36]
< 10%: inhibition of growth at 10 µM [1] | inhibition of growth at 10 µM [2] | inhibition of growth at 10 µM [4] | inhibition of growth at 10 µM [5] | inhibition of growth at 10 µM [6] | inhibition of growth at 10 µM [7] | inhibition of growth at 10 µM [8] | inhibition of growth at 10 µM [9] | inhibition of growth at 10 µM [11] | inhibition of growth at 10 µM [12] | inhibition of growth at 10 µM [13] | inhibition of growth at 10 µM [14] | inhibition of growth at 10 µM [15] | inhibition of growth at 10 µM [17] | inhibition of growth at 10 µM [19] | inhibition of growth at 10 µM [21] | inhibition of growth at 10 µM [22] | inhibition of growth at 10 µM [23] | inhibition of growth at 10 µM [24] | inhibition of growth at 10 µM [25] | inhibition of growth at 10 µM [26] | inhibition of growth at 10 µM [27] | inhibition of growth at 10 µM [29] | inhibition of growth at 10 µM [30] | inhibition of growth at 10 µM [31] | inhibition of growth at 10 µM [32] | inhibition of growth at 10 µM [33] | inhibition of growth at 10 µM [34] | inhibition of growth at 10 µM [35] | inhibition of growth at 10 µM [37] | inhibition of growth at 10 µM [41] | inhibition of growth at 10 µM [42]
10.2%: inhibition of growth at 10 µM [18]
